Measured values: US20150204850A1, “PRODUCTION OF BETA-CELLS” (Max-Planck-Gesellschaft zur Förderung der. Wissenschaften …, priority 2009, published 2015)
Marks after values point to notes of the source that are not given here.

What was measured:
isolated islets = test: Perifusion analysis of isolated islets (insulin release); type: cell-based, mouse; conditions: 20 mM glucose + glucagon
From the text: […] (2003). […] Obviously, a decrease in digestion time/collagenase concentrations would not have permitted proper islet isolation. We anyway perifused the islets and observed no difference in islet function of younger animals for all the genotypes analyzed. However, in older counterparts, we did detect a decrease in the glucose-stimulated insulin release, albeit not significant. It should be noticed that such a lack of significance might be attributed to the loss of oversized islets induced by experimental conditions.

POE::Glucre pancreata [1] = test: Immunohistochemical cell counts and islet size in pancreata of mice supplemented with glucagon; type: in vivo, mouse
Experimental: We therefore hypothesized that the latter might be driven by the hypoglucagonemia resulting from the α- to β-cell conversion. To test this theory, we injected 3-week-old POE::Pdx1Cre, POE::Glucre, POE::Pax6cre, and control animals twice daily with glucagon during three weeks.
(§1) To assess the effects of glucagon on islet size, mice were injected intraperitoneally twice daily (every 12h) with 5 μg of glucagon and sacrificed after 3 weeks of treatment. For STZ-mediated diabetes induction, a freshly prepared 50 mg/ml solution in 0.1 mol/l sodium citrate, pH 4.5 was injected intraperitoneally (200 mg/kg). Lentivirus production and injection were performed as described previously (Xu et al., 2008). Lastly, BrdU was injected intraperitoneally (200 μl of 100 μl/ml) and was detected by immunohistochemistry (Invitrogen).
Tissues were fixed in 4% PFA overnight at 4° C., embedded in paraffin and 8-μm sections applied to slides. These sections were assayed as described previously (Collombat et al. 2003). In order to perform co-immunofluorescence, the GFP signal was bleached when necessary, as described (Collombat et al., 2007). The primary antibodies used were the following: mouse monoclonal anti-insulin, anti-glucagon ( 1/1000 —Sigma), anti-Ngn3 ( 1/2000—1F25A1B3, BCBC Antibody Core), anti-c-Myc ( 1/100 —Abcam); guinea pig anti-insulin, anti-glucagon ( 1/1000—Sigma); rabbit anti-somatostatin ( 1/600—Dako), anti-PP ( 1/200—Dako), anti-Nkx6.1 ( 1/3000), anti-Nkx2.2 ( 1/1000—kindly provided by T. Jessell), anti-Pax6 ( 1/500 Chemicon), anti-Pax4 ( 1/500), and anti-Arx ( 1/1000); chicken anti-β-galactosidase ( 1/500 Biozol); goat anti-Ngn3 ( 1/1000—kindly provided by M. Sander). The secondary antibodies ( 1/1000—Molecular Probes) used were: 594-alexa anti-mouse; 488-alexa anti-mouse; 594-alexa anti-rabbit; 488-alexa anti-rabbit; 594-alexa anti-guinea pig; 488-alexa anti-guinea pig. Pictures were processed using confocal microscopy. For quantification purpose, stained cells were counted manually on every tenth section and the count reported to the pancreatic area estimated in silico.
The counts in cells positive for the indicated genes are reported per square centimetre of pancreatic tissues of POE::Glucre, POE::Glucre supplemented with glucagon, and glucagon-receptor mutant (GluR-KO) mice using age-matched tissues of WT/POE pancreata as reference. It is worth noticing that, in animals ectopically expressing Pax4 in glucagon expression domains or in GluR-KO mice, Ngn3-producing cells reemerge (note for the latter that due to the bias introduced by the high background, this count should be considered as indicative). […] In the latter case, a concomitant decrease in BrdU-labelled proliferating cell numbers is highlighted (BrdU provided at 5 weeks of age, examination a week later). (n>2, **P<0.01, *P<0.05 using the POE/WT genotype as reference; ^##P<0.01, ^#P<0.05 using the POE::Glucre genotype as reference).

POE::Glucre pancreata [2] = test: Real time RT-PCR of selected transcripts in pancreata of POE::Glucre mice supplemented with glucagon; type: in vivo, mouse; conditions: 6 week old POE::Glucre + glucagon for 3 weeks; WT/POE pancreata set at 100%
Experimental: as §1
RNA isolation (RNAeasy, Qiagen) and cDNA synthesis (Supercript choice system, Invitrogen) were performed according to the manufacturer's instructions. cDNA synthesis for analyses aiming to detect Pax4 transcripts was performed using a mixture of eight Pax4-derived (and β-actin-derived) antisense oligonucleotides instead of the provided oligo-dT primers (FIG. 13B).
Quantitative RT-PCR were carried out using the QuantiTect SYBR Green RT-PCR Kit (Qiagen) and validated primers (Qiagen) according to the manufacturer's instructions. The PCR reactions and detection were performed on a Mastercycler® ep realplex cycler using GAPDH and HPRT1 as internal controls for normalization purposes.
The expression of the indicated genes was assayed in pancreatic tissues of POE::Glucre, POE::Glucre supplemented with glucagon, and glucagon-receptor mutant (GluR-KO) mice using age-matched tissues of WT and POE pancreata as reference (values set at 100%). POE::Glucre, but also GluR-KO pancreata display increased contents of Ngn3 and Reg3b transcripts. Additionally, an augmentation in β-cell-specific transcripts is outlined in POE::Glucre, whereas the expression of the α-cell marker genes is reduced Importantly, concomitantly with a significant decrease in Ngn3 and Reg3b transcript contents, a reduction in insulin- and glucagon-producing cell numbers (and associated marker genes) is evidenced in POE::Glucre animals supplemented with glucagon. All values are statistically significant (P<0.05, n>2) versus POE/WT.

POE::Glucre β-cells = test: Arginine and liraglutide tolerance tests; type: in vivo, mouse; conditions: 10-week old POE::Glucre; arginine 5 mg intravenously; lower than in younger animals
POE::Glucre animals = test: Insulin challenge (overall responsiveness to insulin); type: in vivo, mouse; conditions: older POE::Glucre animals; Actrapid insulin 0.75 mU/g subcutaneously
Experimental: Note that 600 mg of glucose per dl of blood correspond to the maximal value detectable by our glucose monitoring system. […] However, due to the experimental conditions used, we noticed a disaggregating of the islets (Table 7) and therefore turned to an in vivo approach: (C) To determine the overall responsiveness to insulin, an insulin challenge was performed in animals of the indicated genotypes and ages. […] (D-F) Aiming to also assay β-cell function, we treated POE::Glucre animals of the indicated genotypes and ages with two insulin secretagogues, arginine and liraglutide (a long-acting GLP-1 analog—Novo Nordisk—Denmark).
Animals of the indicated genotypes were injected subcutaneously with Actrapid insulin (0.75 mU/g—Novo Nordisk—Denmark), intravenously with arginine (5 mg—Sigma) or subcutaneously with liraglutide (200 micrograms per kg—Novo Nordisk—Denmark). Following insulin challenge, blood glucose levels were measured as described in the main manuscript. Next to arginine challenge, at each time point, one animal per genotype was sacrificed immediately for serum insulin level determination using RIA (Linco). Lastly, in the case of liraglutide, the latter was injected 30 min prior to glucose challenge. At each time point, three animals per genotype were sacrificed immediately for serum glucose and insulin level determination.

β-cells = test: STZ-mediated diabetes induction (β-cell depletion); type: in vivo, mouse; conditions: mice, STZ 200 mg/kg intraperitoneally, single dose
From the text: We reasoned that such cells might be capable of replacing lost β-cells in diabetic mice. […] A higher mortality rate was found among animals older than 4 weeks, as compared to younger mice. It should be noticed that these animals were already hyperglycemic and weakened prior to STZ injection due to a combined insulin insensitivity and β-cell failure to optimally respond to a glucose challenge (FIG. 24). […] Ten days post-injection, only few insulin-producing cells were detected (FIG. 7F-G). […]
We reasoned that the continuous β-cell neogenesis observed in double-transgenic animals might be able to rescue experimentally-induced diabetes. Therefore, the function of the newly formed β-cells was assessed in diabetic mice with more than 95% β-cell loss following STZ treatment. […] Also under these conditions, clusters of glucagon^+ cells were detected at one pole of the islets, adjacent to duct structures, such cells subsequently adopting a β-cell phenotype.
To assess the effects of glucagon on islet size, mice were injected intraperitoneally twice daily (every 12h) with 5 μg of glucagon and sacrificed after 3 weeks of treatment. […] Lastly, BrdU was injected intraperitoneally (200 μl of 100 μl/ml) and was detected by immunohistochemistry (Invitrogen).

[3] = 6 week old POE::Glucre + glucagon

Compound: glucagon
- % of insulin released reported to the total insulin cell content/2 h (isolated islets; 3-week old Control islets): 8.9 ± 1.1%
- % of insulin released reported to the total insulin cell content/2 h (isolated islets; 3-week old POE::Glucre islets): 10.6%
- % of insulin released reported to the total insulin cell content/2 h (isolated islets; 12-week old Control islets): 9.5 ± 0.8%
- % of insulin released reported to the total insulin cell content/2 h (isolated islets; 12-week old POE::Glucre islets): 6.6 ± 1.2%
- Islet size (POE::Glucre pancreata [1]; 3-week-old POE::Pdx1Cre, POE::Glucre, POE::Pax6cre mice injected twice daily with glucagon during three weeks, vs controls): significant decrease in islet size
- Glucagon-positive cell count (POE::Glucre pancreata [1]; [3]): 6 ± 4**^# per square centimetre
- Insulin-positive cell count (POE::Glucre pancreata [1]; [3]): 394 ± 132**^## per square centimetre
- BrdU (1 week) labelled cell count (POE::Glucre pancreata [1]; 6 week old POE::Glucre + glucagon, BrdU at 5 weeks of age, examination a week later): 28 ± 7^# per square centimetre
- Ngn3-positive cell count (POE::Glucre pancreata [1]; 6 week old POE::Glucre + glucagon, count indicative (high background)): 38 ± 11^# per square centimetre
- Arx transcript (real time RT-PCR) (POE::Glucre pancreata [2]): 15 ± 10%
- Glucagon transcript (real time RT-PCR) (POE::Glucre pancreata [2]): 18 ± 9%
- Insulin transcript (real time RT-PCR) (POE::Glucre pancreata [2]): 285 ± 52%
- Ngn3 transcript (real time RT-PCR) (POE::Glucre pancreata [2]): 475 ± 81%
- Nkx6.1 transcript (real time RT-PCR) (POE::Glucre pancreata [2]): 183 ± 20%
- Pax4 transcript (real time RT-PCR) (POE::Glucre pancreata [2]): 555 ± 91%
- Pdx1 transcript (real time RT-PCR) (POE::Glucre pancreata [2]): 279 ± 62%
- Reg3b transcript (real time RT-PCR) (POE::Glucre pancreata [2]): 434 ± 63%

Compound: N=C(N)NCCC[C@H](N)C(=O)O [arginine]
- Insulin secretion after arginine challenge (POE::Glucre β-cells): able to elicit an insulin secretion

Compound: insulin: Actrapid insulin, Novo Nordisk, Denmark
- Glycemia after insulin challenge (POE::Glucre animals): did not observe any significant modification of the glycemia

Compound: CN(N=O)C(=O)N[C@H]1C(O)O[C@H](CO)[C@@H](O)[C@@H]1O (mixture of isomers) [STZ, streptozotocin]
- β-cell loss following STZ treatment (β-cells): more than 95%
